This note sets out measurements from patent US9884832B2 (priority 2011, dated 2018).

Structures are written as SMILES.

In the first assay the target is AM2 S31 (wild-type serine at position 31 in the M2 protein), influenza virus A/Udorn/72 (Influenza A virus, UniProt P0DOF5). The assay is described as follows: cell-based. The conditions noted are these: 100 uM; Xenopus oocytes; activity range class; read-out: S31 OOcyte Inhibition at 100 uM (%).
AM2 S31 (wild-type serine at position 31 in the M2 protein), influenza virus A/Udorn/72, sequence (P0DOF5 whole entry, looked up): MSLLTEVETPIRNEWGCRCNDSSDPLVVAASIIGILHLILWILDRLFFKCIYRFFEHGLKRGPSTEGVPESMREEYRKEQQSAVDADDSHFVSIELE
For the compound `COc1ccc(-c2nnc(CNC34CC5CC(CC(C5)C3)C4)o2)cc1` [Example 127a, N-((5-(4-methoxyphenyl)-1,3,4-oxadiazol-2-yl)methyl)adamantan-1-amine], the inhibition at 100 µM fell in the range of 0 to 30%.

Turning to `CCc1ccc(CNC23CC4CC(CC(C4)C2)C3)s1` [Example 98a, N-((5-ethylthiophen-2-yl)methyl)adamantan-1-amine], the inhibition at 100 µM lay within 31 to 95%.

Turning to `OC12CC3CC(C1)CC(NCc1cc(-c4ccccc4)on1)(C3)C2` [Example 194a, (1s,3r,5R,7S)-3-(((5-phenylisoxazol-3-yl)methyl)amino)adamantan-1-ol], the inhibition at 100 µM is 0 to 30%.

Consider `c1ccc(-c2noc(CNC34CC5CC(CC(C5)C3)C4)n2)cc1` [Example 123a, N-((3-phenyl-1,2,4-oxadiazol-5-yl)methyl)adamantan-1-amine], for which the inhibition at 100 µM lay within 0 to 30%.

For `Clc1cc2cc(CNC34CC5CC(CC(C5)C3)C4)sc2s1` [Example 173a, Adamantan-1-yl-(5-chloro-thieno[2,3-b]thiophen-2-ylmethyl)-amine], the inhibition at 100 µM fell in the range of 31 to 95%.

On to `Oc1cccc2ccc(CNC34CC5CC(CC(C5)C3)C4)nc12` [Example 65a, 2-((adamantan-1-ylamino)methyl)quinolin-8-ol], for which the inhibition at 100 µM was in the range of 31 to 95%.

Turning to `Cc1ccsc1CNC12CC3CC(CC(C3)C1)C2` [Example 76a, N-((3-methylthiophen-2-yl)methyl)adamantan-1-amine], the inhibition at 100 µM fell in the range of 31 to 95%.

Consider `Cc1c(CNC23CC4CC(CC(C4)C2)C3)sc2ccccc12` [Example 177a, Adamantan-1-yl-(3-methyl-benzo[b]thiophen-2-ylmethyl)-amine], for which the inhibition at 100 µM lay within 31 to 95%.

Consider `Cc1cccc2nc(CNC34CC5CC(CC(C5)C3)C4)[nH]c12` [Example 184a, Adamantan-1-yl-(7-methyl-1H-benzoimidazol-2-ylmethyl)-amine], for which the inhibition at 100 µM was 0 to 30%.

With `c1cc(-c2cc(CNC34CC5CC(CC(C5)C3)C4)no2)cs1` [Example 150a, Adamantan-1-yl-(5-thiophen-3-yl-isoxazol-3-ylmethyl)-amine], the inhibition at 100 µM was 0 to 30%.

Turning to `Oc1cc(-c2cc3ccccc3o2)ccc1CNC12CC3CC(CC(C3)C1)C2` [Example 48a], the inhibition at 100 µM lay in the range of 0 to 30%.

`COc1ccc(C(C)NC23CC4CC(CC(C4)C2)C3)cc1` (stereo not drawn) [Example 11a, N-(1-(4-methoxyphenyl)ethyl)adamantan-1-amine]: the inhibition at 100 µM fell in the range of 31 to 95%.

Turning to `c1cn(-c2ccc(CNC34CC5CC(CC(C5)C3)C4)s2)cn1` [Example 161a, N-((5-(1H-imidazol-1-yl)thiophen-2-yl)methyl)adamantan-1-amine], the inhibition at 100 µM was in the range of 0 to 30%.

Take `c1cc(-c2ccc(CNC34CC5CC(CC(C5)C3)C4)o2)[nH]n1` [Example 162a, N-((5-(1H-pyrazol-5-yl)furan-2-yl)methyl)adamantan-1-amine]: the inhibition at 100 µM was in the range of 0 to 30%.

With `c1ccc(-c2nc(CNC34CC5CC(CC(C5)C3)C4)c[nH]2)cc1` [Example 114a, N-((2-phenyl-1H-imidazol-4-yl)methyl)adamantan-1-amine], the inhibition at 100 µM lay in the range of 31 to 95%.

With `c1c(CNC23CC4CC(CC(C4)C2)C3)noc1CN1CCOCC1` [Example 106a, N-((5-(morpholinomethyl)isoxazol-3-yl)methyl)adamantan-1-amine], the inhibition at 100 µM is 0 to 30%.

With `Brc1csc(CNC23CC4CC(CC(C4)C2)C3)c1` [Example 105a, N-((4-bromothiophen-2-yl)methyl)adamantan-1-amine], the inhibition at 100 µM is 31 to 95%.

Take `c1ccc(Oc2ccc(CNC34CC5CC(CC(C5)C3)C4)cc2)cc1` [Example 13a, Adamantan-1-yl-(4-phenoxy-benzyl)-amine]: the inhibition at 100 µM was 31 to 95%.

On to `Oc1ccc(CNC23CC4CC(CC(O)(C4)C2)C3)c(O)c1` [Example 196a, 4-[(3-Hydroxy-adamantan-1-ylamino)-methyl]-benzene-1,3-diol], for which the inhibition at 100 µM fell in the range of 0 to 30%.

With `CCc1nc(CNC23CC4CC(CC(C4)C2)C3)no1` [Example 165a], the inhibition at 100 µM lay within 31 to 95%.

On to `c1csc(C2=NOC(CNC34CC5CC(CC(C5)C3)C4)C2)c1` (stereo not drawn) [Example 168a, N-((3-(thiophen-2-yl)-4,5-dihydroisoxazol-5-yl)methyl)adamantan-1-amine], for which the inhibition at 100 µM fell in the range of 0 to 30%.

For the compound `c1coc(-c2ccc(CNC34CC5CC(CC(C5)C3)C4)s2)c1` [Example 136a, N-((5-(Furan-2-yl)thiophen-2-yl)methyl)adamantan-1-amine], the inhibition at 100 µM was in the range of 0 to 30%.

Consider `O=c1[nH]cc(CNC23CC4CC(CC(C4)C2)C3)c(=O)[nH]1` [Example 169a, 5-((adamantan-1-ylamino)methyl)pyrimidine-2,4(1H,3H)-dione], for which the inhibition at 100 µM is 0 to 30%.

Take `Cc1ccc(-c2ccc(CNC34CC5CC(CC(C5)C3)C4)cc2)o1.Cl` [Example 32a, N-(4-(5-Methylfuran-2-yl)benzyl)adamantan-1-amine hydrochloride]: the inhibition at 100 µM lay within 0 to 30%.

In the case of `COc1ccccc1COc1ccc(CNC23CC4CC(CC(C4)C2)C3)cc1` [Example 15a, Adamantan-1-yl-[4-(2-methoxy-benzyloxy)-benzyl]-amine], the inhibition at 100 µM fell in the range of 0 to 30%.

Regarding `O=c1ccc2cc(CNC34CC5CC(CC(C5)C3)C4)ccc2o1` [Example 42a, 6-((adamantan-1-ylamino)methyl)-2H-chromen-2-one], the inhibition at 100 µM was 0 to 30%.

Regarding `OC12CC3CC(C1)CC(NCc1ccc(Cl)s1)(C3)C2` [Example 189a, 3-[(5-Chloro-thiophen-2-ylmethyl)-amino]adamantan-1-ol], the inhibition at 100 µM lay within 0 to 30%.

Staying with this assay, now noted: Table 1; 100 uM; Xenopus oocytes, pH 5.5, -20 mV; read-out: S31 OOcyte Inhibition at 100 uM (%).
Turning to `Oc1c(CNC23CC4CC(CC(C4)C2)C3)ccc2ccccc12` [Example 97, 2-(Adamantan-1-ylaminomethyl)-naphthalen-1-ol], the inhibition at 100 µM fell in the range of 31 to 95%.

Consider `c1ccc2[nH]c(CNC34CC5CC(CC(C5)C3)C4)cc2c1` [Example 93, Adamantan-1-yl-(1H-indol-2-ylmethyl)-amine], for which the inhibition at 100 µM lay in the range of 0 to 30%.

Take `OCc1ccc(CNC23CC4CC(CC(C4)C2)C3)o1` [Example 77, [5-(Adamantan-1-ylaminomethyl)-furan-2-yl]methanol]: the inhibition at 100 µM was in the range of 0 to 30%.

For the compound `COc1cc(O)cc(OC)c1CNC12CC3CC(CC(C3)C1)C2` [Example 66, 4-(Adamantan-1-ylaminomethyl)-3,5-dimethoxy-phenol], the inhibition at 100 µM lay within 31 to 95%.

In the case of `Oc1c(F)c(F)c(CNC23CC4CC(CC(C4)C2)C3)c(F)c1F` [Example 71, 4-(Adamantan-1-ylaminomethyl)-2,3,5,6-tetrafluoro-phenol], the inhibition at 100 µM is 0 to 30%.

`O=C(Oc1ccc(CNC23CC4CC(CC(C4)C2)C3)cc1)C1CC1` [Example 34, Cyclopropanecarboxylic acid 4-(adamantan-1-ylaminomethyl)-phenyl ester]: the inhibition at 100 µM lay in the range of 0 to 30%.

Take `OCC(Cc1cnc[nH]1)NCC12CC3CC(CC(C3)C1)C2` (stereo not drawn) [Example 2, 2-[(adamantan-1-ylmethyl)-amino]-3-(3H-imidazol-4-yl)-propan-1-ol]: the inhibition at 100 µM was in the range of 0 to 30%.

`Cc1cc(CNC23CC4CC(CC(C4)C2)C3)ccc1O` [Example 51, 4-(Adamantan-1-ylaminomethyl)-2-methyl-phenol]: the inhibition at 100 µM was in the range of 31 to 95%.

Consider `O=[N+]([O-])c1cc(CNC23CC4CC(CC(C4)C2)C3)ccc1O` [Example 52, 4-(Adamantan-1-ylaminomethyl)-2-nitro-phenol], for which the inhibition at 100 µM was 31 to 95%.

On to `c1cc2cc(CNC34CC5CC(CC(C5)C3)C4)sc2s1` [Example 79, Adamantan-1-yl-thieno[2,3-b]thiophen-2-ylmethyl-amine], for which the inhibition at 100 µM lay within 31 to 95%.

The same assay, now with this note: Table 3; 100 uM; Xenopus oocytes, pH 5.5, -20 mV; read-out: S31 OOcyte Inhibition at 100 uM (%).
In the case of `c1cnc2[nH]c(CNC34CC5CC(CC(C5)C3)C4)nc2c1` [Example 82b, N-((3H-imidazo[4,5-b]pyridin-2-yl)methyl)adamantan-1-amine], the inhibition at 100 µM is 0 to 30%.

On to `Oc1cc(-c2ccsc2)ccc1CNC12CC3CC(CC(C3)C1)C2` [Example 8b], for which the inhibition at 100 µM is 0 to 30%.

As for `c1nc(C2CCCCC2)ncc1CNC12CC3CC(CC(C3)C1)C2` [Example 61b, N-((2-cyclohexylpyrimidin-5-yl)methyl)adamantan-1-amine], the inhibition at 100 µM lay within 0 to 30%.

`Cc1csc(CNC23CC4CC(CC(C4)C2)C3)n1` [Example 68b, Adamantan-1-yl-(4-methyl-thiazol-2-ylmethyl)-amine]: the inhibition at 100 µM fell in the range of 31 to 95%.

In the case of `C1COC(c2nc(CNC34CC5CC(CC(C5)C3)C4)no2)C1` (stereo not drawn) [Example 21b, N-((5-(tetrahydrofuran-2-yl)-1,2,4-oxadiazol-3-yl)methyl)adamantan-1-amine], the inhibition at 100 µM lay within 0 to 30%.

Consider `c1nc(CNC23CC4CC(CC(C4)C2)C3)sc1C1CC1` [Example 65b, Adamantan-1-yl-(5-cyclopropyl-thiazol-2-ylmethyl)-amine], for which the inhibition at 100 µM was 0 to 30%.

For the compound `COc1ccc2nc(CNC34CC5CC(CC(C5)C3)C4)[nH]c2c1` [Example 79b, Adamantan-1-yl-(6-methoxy-1H-benzoimidazol-2-ylmethyl)-amine], the inhibition at 100 µM lay within 0 to 30%.

With `Cc1csc(-c2ccc(CNC34CC5CC(CC(C5)C3)C4)s2)c1` [Example 51b, N-((4′-Methyl-[2,2′-bithiophen]-5-yl)methyl)adamantan-1-amine], the inhibition at 100 µM was in the range of 0 to 30%.

For the compound `FC(F)(F)Oc1ccc(-c2cc(CNC34CC5CC(CC(C5)C3)C4)no2)cc1` [Example 36b, N-((5-(4-(trifluoromethoxy)phenyl)isoxazol-3-yl)methyl)adamantan-1-amine], the inhibition at 100 µM was 0 to 30%.

Regarding `Fc1cccc(F)c1-c1cc(CNC23CC4CC(CC(C4)C2)C3)no1` [Example 38b, N-((5-(2,6-difluorophenyl)isoxazol-3-yl)methyl)adamantan-1-amine], the inhibition at 100 µM is 0 to 30%.

Still in this assay, the particulars now being: pH 5.5, read-out: S31 OOcyte Inhibition at 100 uM (%).
As to `Oc1ccccc1CNC12CC3CC(CC(C3)C1)C2` [Example 28, 2-(Adamantan-1-ylaminomethyl)-phenol], the inhibition at 100 µM was in the range of 31 to 95%.

The inhibition is the share of the control response that was lost under treatment.
